The record followed here is patent US20240252506A1 (Hoffmann-La Roche Inc., priority 2021, published 2024).

Broadly, the MIC is the lowest concentration that inhibits growth of the organism.

In brackets after ≈: the same amount, converted by molar mass. Bounds are passed on as bounds.

The experiment has as its system Escherichia coli ATCC 25922. Briefly: Minimal Inhibitory Concentration (MIC) determination, broth microdilution (CLSI M07-A10). It is filed as cell-based. The following applies: Escherichia coli, ATCC25922, strain Escherichia coli ATCC 25922, 18-24 hours at 35±2° C., lowest concentration for complete growth inhibition (no visible growth), read-out: Escherichia coli growth inhibition MIC. In outline: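 Broth microdilution per CLSI M07-A10; compounds in 2-fold serial dilutions; inoculum from 0.5 McFarland suspension diluted 1:200 in broth. Incubated 18-24 h at 35±2° C in ambient air; MIC (μg/mL) taken as lowest concentration giving no visible growth.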
(Broth dilution looks for growth in wells or tubes with falling amounts of substance.)
On to `CN[C@@H](C)c1nc2c(F)c3c(c(F)c2[nH]1)CC(CN1CCC2(CC1)CN(c1cnc4c(n1)NC(=O)CO4)C(=O)O2)C3` [Example 38, 6-[8-[[4,8-difluoro-2-[(1S)-1-(methylamino)ethyl]-3,5,6,7-tetrahydrocyclopenta[f]benzimidazol-6-yl]methyl]-2-oxo-1-oxa-3,8-diazaspiro[4.5]decan-3-yl]-4H-pyrazino[2,3-b][1,4]oxazin-3-one], for which the minimum inhibitory concentration (MIC) was found to be 0.125 µg/mL (≈ 0.22 µM). Regarding `Nc1cnc2c(F)c3c(c(F)c2n1)CC(CN1CCC2(CC1)CN(c1cnc4c(n1)NC(=O)CO4)C(=O)O2)C3` (centres unmarked) [Example 39, 6-[8-[(3-amino-5,9-difluoro-7,8-dihydro-6H-cyclopenta[g]quinoxalin-7-yl)methyl]-2-oxo-1-oxa-3,8-diazaspiro[4.5]decan-3-yl]-4H-pyrazino[2,3-b][1,4]oxazin-3-one], the MIC is 0.5 µg/mL (≈ 0.928 µM). On to `CNCCNc1cnc2c(F)c3c(c(F)c2n1)CC(CN1CCC2(CC1)CN(c1cnc4c(n1)NC(=O)CO4)C(=O)O2)C3` (centres unmarked) [Example 40, 6-[8-[[5,9-difluoro-3-[2-(methylamino)ethylamino]-7,8-dihydro-6H-cyclopenta[g]quinoxalin-7-yl]methyl]-2-oxo-1-oxa-3,8-diazaspiro[4.5]decan-3-yl]-4H-pyrazino[2,3-b][1,4]oxazin-3-one], for which the MIC was 0.5 µg/mL (≈ 0.839 µM). Take `NCCn1nc2c(F)c3c(c(F)c2n1)CC(CN1CCC2(CC1)CN(c1cnc4c(n1)NC(=O)CO4)C(=O)O2)C3` [Example 41, 6-[8-[[2-(2-aminoethyl)-4,8-difluoro-6,7-dihydro-5H-cyclopenta[f]benzotriazol-6-yl]methyl]-2-oxo-1-oxa-3,8-diazaspiro[4.5]decan-3-yl]-4H-pyrazino[2,3-b][1,4]oxazin-3-one]: the MIC is at most 0.06 µg/mL. In the case of `NCCn1nnc2c(F)c3c(c(F)c21)CC(CN1CCC2(CC1)CN(c1cnc4c(n1)NC(=O)CO4)C(=O)O2)C3` (centres unmarked) [Example 42, 6-[8-[[1-(2-aminoethyl)-4,8-difluoro-6,7-dihydro-5H-cyclopenta[f]benzotriazol-6-yl]methyl]-2-oxo-1-oxa-3,8-diazaspiro[4.5]decan-3-yl]-4H-pyrazino[2,3-b][1,4]oxazin-3-one], the MIC is at most 0.06 µg/mL.

In the case of `NCCn1c(=O)n(CCN)c2c(F)c3c(c(F)c21)CC(CN1CCC2(CC1)CN(c1cnc4c(n1)NC(=O)CO4)C(=O)O2)C3.O=C(O)C(F)(F)F` [Example 43, 6-[8-[[1,3-bis(2-aminoethyl)-4,8-difluoro-2-oxo-6,7-dihydro-5H-cyclopenta[f]benzimidazol-6-yl]methyl]-2-oxo-1-oxa-3,8-diazaspiro[4.5]decan-3-yl]-4H-pyrazino[2,3-b][1,4]oxazin-3-one; 2,2,2-trifluoroacetic acid], the MIC was 2 µg/mL. Regarding `NCCn1c(=O)[nH]c2c(F)c3c(c(F)c21)CC(CN1CCC2(CC1)CN(c1cnc4c(n1)NC(=O)CO4)C(=O)O2)C3` (centres unmarked) [Example 44, 6-[8-[[1-(2-aminoethyl)-4,8-difluoro-2-oxo-3,5,6,7-tetrahydrocyclopenta[f]benzimidazol-6-yl]methyl]-2-oxo-1-oxa-3,8-diazaspiro[4.5]decan-3-yl]-4H-pyrazino[2,3-b][1,4]oxazin-3-one], the MIC was 0.25 µg/mL (≈ 0.438 µM). The same measure for `C[C@@H](N)c1nc2cc3c(c(F)c2[nH]1)CC(CN1CCC2(CC1)CN(c1cnc4c(n1)NC(=O)CO4)C(=O)O2)C3` (stereo partly drawn) [Example 45, 6-[8-[[2-[(1R)-1-aminoethyl]-8-fluoro-1,5,6,7-tetrahydrocyclopenta[f]benzimidazol-6-yl]methyl]-2-oxo-1-oxa-3,8-diazaspiro[4.5]decan-3-yl]-4H-pyrazino[2,3-b][1,4]oxazin-3-one]: 0.125 µg/mL (≈ 0.233 µM); for `O=C(O)C(F)(F)F.O=C1COc2ncc(N3CC4(CCN(CC5Cc6c(c(F)c7[nH]c([C@@H]8C[C@@H](O)CN8)nc7c6F)C5)CC4)OC3=O)nc2N1` [Example 46, 6-[8-[[4,8-Difluoro-2-[(2S,4R)-4-hydroxypyrrolidin-2-yl]-3,5,6,7-tetrahydrocyclopenta[f]benzimidazol-6-yl]methyl]-2-oxo-1-oxa-3,8-diazaspiro[4.5]decan-3-yl]-4H-pyrazino[2,3-b][1,4]oxazin-3-one;2,2,2-trifluoroacetic acid]: 0.25 µg/mL. With `O=C(O)C(F)(F)F.O=C1COc2ncc(N3CC(CCNCC4Cc5c(c(F)c6[nH]c([C@@H]7C[C@@H](O)CN7)nc6c5F)C4)OC3=O)nc2N1` (stereo partly drawn) [Example 47, 6-[5-[2-[[4,8-difluoro-2-[(2S,4R)-4-hydroxypyrrolidin-2-yl]-3,5,6,7-tetrahydrocyclopenta[f]benzimidazol-6-yl]methylamino]ethyl]-2-oxo-oxazolidin-3-yl]-4H-pyrazino[2,3-b][1,4]oxazin-3-one; 2,2,2-trifluoroacetic acid], the minimal inhibitory concentration (MIC) came to 2 µg/mL. For the molecule `O=C(O)C(F)(F)F.O=C1COc2ncc(N3CC4(CCN(CC5Cc6cc7[nH]c([C@@H]8C[C@@H](O)CN8)nc7c(F)c6C5)CC4)OC3=O)nc2N1` (stereo partly drawn) [Example 48, 6-[8-[[8-fluoro-2-[(2S,4R)-4-hydroxypyrrolidin-2-yl]-3,5,6,7-tetrahydrocyclopenta[f]benzimidazol-6-yl]methyl]-2-oxo-1-oxa-3,8-diazaspiro[4.5]decan-3-yl]-4H-pyrazino[2,3-b][1,4]oxazin-3-one; 2,2,2-trifluoroacetic acid], the minimum inhibitory concentration (MIC) is 0.25 µg/mL. For the molecule `O=C(O)C(F)(F)F.O=C1COc2ncc(N3CC4(CCN(CC5Cc6c(c(F)c7[nH]c([C@H]8C[C@H](O)CN8)nc7c6F)C5)CC4)OC3=O)nc2N1` [Example 49, 6-[8-[[4,8-difluoro-2-[(2R,4S)-4-hydroxypyrrolidin-2-yl]-3,5,6,7-tetrahydrocyclopenta[f]benzimidazol-6-yl]methyl]-2-oxo-1-oxa-3,8-diazaspiro[4.5]decan-3-yl]-4H-pyrazino[2,3-b][1,4]oxazin-3-one; 2,2,2-trifluoroacetic acid], the minimal inhibitory concentration (MIC) was found to be 0.25 µg/mL. The same measure for `O=C(O)C(F)(F)F.O=C1COc2ncc(N3CC4(CCN(CC5Cc6c(c(F)c7[nH]c([C@H]8C[C@@H](O)CN8)nc7c6F)C5)CC4)OC3=O)nc2N1` [Example 50, 6-[8-[[4,8-difluoro-2-[(2R,4R)-4-hydroxypyrrolidin-2-yl]-3,5,6,7-tetrahydrocyclopenta[f]benzimidazol-6-yl]methyl]-2-oxo-1-oxa-3,8-diazaspiro[4.5]decan-3-yl]-4H-pyrazino[2,3-b][1,4]oxazin-3-one; 2,2,2-trifluoroacetic acid]: 0.25 µg/mL; for `O=C(O)C(F)(F)F.O=C1COc2ncc(N3CC4(CCN(CC5Cc6c(c(F)c7[nH]c([C@@H]8C[C@H](O)CN8)nc7c6F)C5)CC4)OC3=O)nc2N1` [Example 52, 6-[8-[[4,8-difluoro-2-[(2S,4S)-4-hydroxypyrrolidin-2-yl]-3,5,6,7-tetrahydrocyclopenta[f]benzimidazol-6-yl]methyl]-2-oxo-1-oxa-3,8-diazaspiro[4.5]decan-3-yl]-4H-pyrazino[2,3-b][1,4]oxazin-3-one; 2,2,2-trifluoroacetic acid]: 0.5 µg/mL; for `O=C1COc2ncc(N3CC4(CC(NCC5Cc6c(c(F)c7[nH]c([C@H]8C[C@@H](O)CN8)nc7c6F)C5)C4)OC3=O)nc2N1` (stereo partly drawn) [Example 53, 6-[2-[[4,8-difluoro-2-[(2R,4R)-4-hydroxypyrrolidin-2-yl]-3,5,6,7-tetrahydrocyclopenta[f]benzimidazol-6-yl]methylamino]-6-oxo-5-oxa-7-azaspiro[3.4]octan-7-yl]-4H-pyrazino[2,3-b][1,4]oxazin-3-one]: 4 µg/mL (≈ 6.87 µM). Then `O=C(O)C(F)(F)F.O=C1COc2ncc(N3CC4(CCN(CC5Cc6c(c(F)c7[nH]c([C@H]8NCC[C@@H]8O)nc7c6F)C5)CC4)OC3=O)nc2N1` [Example 54, 6-[8-[[4,8-difluoro-2-[(2R,3S)-3-hydroxypyrrolidin-2-yl]-3,5,6,7-tetrahydrocyclopenta[f]benzimidazol-6-yl]methyl]-2-oxo-1-oxa-3,8-diazaspiro[4.5]decan-3-yl]-4H-pyrazino[2,3-b][1,4]oxazin-3-one; 2,2,2-trifluoroacetic acid], with 0.125 µg/mL; and `Cn1c([C@@H]2C[C@@H](O)CN2)nc2c(F)c3c(c(F)c21)CC(CN1CCC2(CC1)CN(c1cnc4c(n1)NC(=O)CO4)C(=O)O2)C3.O=C(O)C(F)(F)F` (stereo partly drawn) [Example 55, 6-[8-[[4,8-difluoro-2-[(2S,4R)-4-hydroxypyrrolidin-2-yl]-1-methyl-6,7-dihydro-5H-cyclopenta[f]benzimidazol-6-yl]methyl]-2-oxo-1-oxa-3,8-diazaspiro[4.5]decan-3-yl]-4H-pyrazino[2,3-b][1,4]oxazin-3-one; 2,2,2-trifluoroacetic acid], with 0.25 µg/mL; and `CN[C@H](CO)c1nc2c(F)c3c(c(F)c2[nH]1)CC(CN1CCC2(CC1)CN(c1cnc4c(n1)NC(=O)CO4)C(=O)O2)C3.O=C(O)C(F)(F)F` [Example 56, 6-[8-[[4,8-difluoro-2-[(1S)-2-hydroxy-1-(methylamino)ethyl]-3,5,6,7-tetrahydrocyclopenta[f]benzimidaozl-6-yl]methyl]-2-oxo-1-oxa-3,8-diazaspiro[4.5]decan-3-yl]-4H-pyrazino[2,3-b][1,4]oxazin-3-one; 2,2,2-trifluoroacetic acid], with 0.25 µg/mL. Consider `CN[C@H](CO)Cc1nc2c(F)c3c(c(F)c2[nH]1)CC(CN1CCC2(CC1)CN(c1cnc4c(n1)NC(=O)CO4)C(=O)O2)C3` [Example 57, 6-[8-[[4,8-difluoro-2-[(2S)-3-hydroxy-2-(methylamino)propyl]-3,5,6,7-tetrahydrocyclopenta[f]benzimidazol-6-yl]methyl]-2-oxo-1-oxa-3,8-diazaspiro[4.5]decan-3-yl]-4H-pyrazino[2,3-b][1,4]oxazin-3-one], for which the MIC was determined as 0.5 µg/mL (≈ 0.835 µM). For `CN1C[C@H](O)C[C@H]1c1nc2c(F)c3c(c(F)c2[nH]1)CC(CN1CCC2(CC1)CN(c1cnc4c(n1)NC(=O)CO4)C(=O)O2)C3` [Example 58, 6-[8-[[4,8-Difluoro-2-[(2S,4R)-4-hydroxy-1-methyl-pyrrolidin-2-yl]-3,5,6,7-tetrahydrocyclopenta[f]benzimidazol-6-yl]methyl]-2-oxo-1-oxa-3,8-diazaspiro[4.5]decan-3-yl]-4H-pyrazino[2,3-b][1,4]oxazin-3-one], the minimal inhibitory concentration (MIC) amounted to 1 µg/mL (≈ 1.64 µM).
